The source of these data is patent US10662156B2, “Guanidine derivative and medical use thereof” (Toray Industries, Inc., priority 2016, dated 2020).

Structures can show the parent of a compound that is named as a salt.

The target of the assay is recombinant GST fusion MALT1 (human MALT1) (Homo sapiens (Human), UniProt Q9UDY8). Nature of the assay: Evaluation of inhibition of protease activity of MALT1 (cleavage of fluorescent peptide substrate Ac-LRSR-AMC). It is filed as biochemical. As to conditions: substrate Ac-LRSR-AMC 20 μmol/L, 30° C. for 80 minutes. On the procedure: The guanidine derivative (I) or the pharmacologically acceptable salt thereof was evaluated for its inhibition of the protease activity of MALT1 in an in vitro experimental system in accordance with the method described in the literature (Cancer Cell, 2012, Vol. 22, p. 825-837). Specifically, the evaluation was conducted by measuring the degree of reduction in fluorescence value by the compound relative to elevation in fluorescence value resulting from the cleavage of a fluorescently labeled artificial peptide substrate by recombinant MALT1.
recombinant GST fusion MALT1 (human MALT1), sequence (Q9UDY8 whole entry, the tested form may be a part): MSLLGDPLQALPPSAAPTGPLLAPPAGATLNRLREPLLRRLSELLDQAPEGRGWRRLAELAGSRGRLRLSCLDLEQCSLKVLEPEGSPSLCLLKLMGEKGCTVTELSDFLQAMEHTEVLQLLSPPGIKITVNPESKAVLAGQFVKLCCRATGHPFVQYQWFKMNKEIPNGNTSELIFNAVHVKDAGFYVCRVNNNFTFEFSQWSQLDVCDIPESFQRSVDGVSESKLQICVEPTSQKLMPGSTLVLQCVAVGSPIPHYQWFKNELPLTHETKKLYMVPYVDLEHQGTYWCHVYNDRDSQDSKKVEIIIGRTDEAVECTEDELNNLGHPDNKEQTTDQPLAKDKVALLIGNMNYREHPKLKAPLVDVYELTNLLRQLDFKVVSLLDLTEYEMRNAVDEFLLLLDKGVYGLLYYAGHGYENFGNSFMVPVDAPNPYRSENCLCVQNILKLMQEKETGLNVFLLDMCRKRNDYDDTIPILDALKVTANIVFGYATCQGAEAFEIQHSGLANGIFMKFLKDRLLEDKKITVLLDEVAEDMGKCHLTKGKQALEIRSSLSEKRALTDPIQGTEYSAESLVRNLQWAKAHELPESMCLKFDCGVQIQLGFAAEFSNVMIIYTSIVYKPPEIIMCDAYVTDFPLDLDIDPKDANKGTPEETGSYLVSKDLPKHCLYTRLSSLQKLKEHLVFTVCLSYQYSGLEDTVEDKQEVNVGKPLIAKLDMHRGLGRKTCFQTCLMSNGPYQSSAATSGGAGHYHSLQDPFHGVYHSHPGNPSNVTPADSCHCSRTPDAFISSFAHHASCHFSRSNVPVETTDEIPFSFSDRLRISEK
A) Preparation of Recombinant GST Fusion MALT1:
Full-length cDNA of human MALT1 gene (GenBank accession No: AB026118.1) amplified by PCR was inserted in flame to a SalI site located downstream of GST gene in a pGEX6P3 vector (GE Healthcare Japan Corp.) to prepare a vector (hereinafter, referred to as a pGEX6P3-MALT1 vector). Subsequently, E. coli for protein expression (BL21-RIL-codon plus-DE3, Agilent Technologies, Inc.) was transformed with the pGEX6P3-MALT1 vector and then analyzed by ampicillin resistance screening and colony PCR to obtain an E. coli strain expressing recombinant GST fusion MALT1. Protein expression was induced with isopropyl-(3-thiogalactopyranoside. After the expression induction, E. coli precipitates were recovered by centrifugation from the E. coli culture solution, and the E. coli precipitates were homogenized and then centrifuged to obtain a supernatant. The supernatant was purified using GSTrap FF column (GE Healthcare Japan Corp.) to obtain recombinant GST fusion MALT1.
B) Evaluation of Inhibition of Protease Activity of MALT1:
To 89 μL of an enzyme solution ([…] GST fusion MALT1, 50 mmol/L MES, 150 mmol/L NaCl, 10% sucrose, 0.1% CHAPS, 10 mmol/L dithiothreitol, and 1 mol/L tri-ammonium citrate) per specimen, 1 μL of a test compound (DMSO-diluted solution) of each concentration was added to prepare a mixed solution. The mixed solution was incubated at room temperature for 30 minutes, followed by the measurement of the fluorescence value of the mixed solution (fluorescence value of the first measurement) (Ex: 380 nm, Em: 460 nm; Envision (Perkin Elmer Inc.)). Next, 10 μL of 200 μmol/L substrate (Ac-LRSR-AMC, SM Biochemicals LLC) was added (final concentration: 20 μmol/L) to the mixed solution, and the mixture was reacted by incubation at 30° C. for 80 minutes, followed by the measurement of the fluorescence value of the reaction solution (fluorescence value of the second measurement) (Ex: 380 nm, Em: 460 nm; Envision (Perkin Elmer Inc.)). A “well nonsupplemented with the test compound (only DMSO was added), nonsupplemented with the enzyme and supplemented with the substrate”, and a “well nonsupplemented with the test compound (only DMSO was added), supplemented with the enzyme and supplemented with the substrate” were established.
The fluorescence value of the first measurement was defined as “F1”, and the fluorescence value of the second measurement was defined as “F2”. F2−F1 of the “well nonsupplemented with the test compound (only DMSO was added), nonsupplemented with the enzyme and supplemented with the substrate” was defined as “Fback”, F2−F1 of the “well nonsupplemented with the test compound (only DMSO was added), supplemented with the enzyme and supplemented with the substrate” was defined as “Fpositive”, and F2−F1 of the “well supplemented with the test compound, supplemented with the enzyme and supplemented with the substrate” was defined as “Fsample”. The rate of inhibition (%) of the protease activity of MALT1 by the test compound was calculated according to the following expression. Rate of inhibition (%)=100×(1−(Fsample−Fback)/(Fpositive−Fback))
In general, IC50 refers to the concentration that inhibits the measured activity by half. As to `N/C(=N\S(=O)(=O)c1ccccc1)NCc1cnc(-c2ccccc2)c(-c2ccc(Cl)cc2)c1` [Compound of Example 3, N-(amino(((5-(4-chlorophenyl)-6-phenylpyridin-3-yl)methyl)amino)methylene)benzenesulfonamide], the IC50 was found to be 705 nM.

As for `N/C(=N\S(=O)(=O)c1ccccc1)NCc1cnc(-c2cccc(Cl)c2)c(-c2ccc(Cl)cc2)c1` [Compound of Example 4, N-(amino(((6-(3-chlorophenyl)-5-(4-chlorophenyl)pyridin-3-yl)methyl)amino)methylene)benzenesulfonamide], the half-maximal inhibitory concentration (IC50) is 1400 nM.

Consider `Cc1ccc(-c2ncc(CN/C(N)=N/S(=O)(=O)c3ccccc3)cc2-c2ccc(Cl)cc2)cc1` [Compound of Example 5, N-(amino(((5-(4-chlorophenyl)-6-(4-methylphenyl)pyridin-3-yl)methyl)amino)methylene)benzenesulfonamide], for which the concentration for half-maximal inhibition (IC50) is 66 nM.

For `COc1ccc(-c2ncc(CN/C(N)=N/S(=O)(=O)c3ccccc3)cc2-c2ccc(Cl)cc2)cc1` [Compound of Example 6, N-(amino(((5-(4-chlorophenyl)-6-(4-methoxyphenyl)pyridin-3-yl)methyl)amino)methylene)benzenesulfonamide], the 50% inhibitory concentration (IC50) turned out to be 505 nM.

`N#Cc1ccc(-c2ncc(CN/C(N)=N/S(=O)(=O)c3ccccc3)cc2-c2ccc(Cl)cc2)cc1` [Compound of Example 7, N-(amino(((5-(4-chlorophenyl)-6-(4-cyanophenyl)pyridin-3-yl)methyl)amino)methylene)benzenesulfonamide]: the half-inhibitory concentration (IC50) was 192 nM.

For `N/C(=N\S(=O)(=O)c1ccccc1)NCc1cnc(-c2ccc(F)cc2)c(-c2ccc(Cl)cc2)c1` [Compound of Example 8, N-(amino(((5-(4-chlorophenyl)-6-(4-fluorophenyl)pyridin-3-yl)methyl)amino)methylene)benzenesulfonamide], the IC50 stood at 1290 nM.

`N/C(=N\S(=O)(=O)c1ccccc1)NCc1cnc(-c2cccc(F)c2)c(-c2ccc(Cl)cc2)c1` [Compound of Example 9, N-(amino(((5-(4-chlorophenyl)-6-(3-fluorophenyl)pyridin-3-yl)methyl)amino)methylene)benzenesulfonamide]: the IC50 was 1710 nM.

Regarding `N/C(=N\S(=O)(=O)c1ccccc1)NCc1cnc(-c2ccc(OC(F)(F)F)cc2)c(-c2ccc(Cl)cc2)c1` [Compound of Example 10, N-(amino(((5-(4-chlorophenyl)-6-(4-(trifluoromethoxy)phenyl)pyridin-3-yl)methyl)amino)methylene)benzenesulfonamide], the IC50 is 297 nM.

As to `N/C(=N\S(=O)(=O)c1ccccc1)NCc1cnc(-c2ccc(C(F)(F)F)cc2)c(-c2ccc(Cl)cc2)c1` [Compound of Example 11, N-(amino(((5-(4-chlorophenyl)-6-(4-(trifluoromethyl)phenyl)pyridin-3-yl)methyl)amino)methylene)benzenesulfonamide], the IC50 worked out at 348 nM.

For the molecule `Cc1ccc(-c2ncc(CN/C(N)=N/S(=O)(=O)c3ccccc3)cc2-c2ccc(Cl)cc2)cc1F` [Compound of Example 12, N-(amino(((5-(4-chlorophenyl)-6-(3-fluoro-4-methylphenyl)pyridin-3-yl)methyl)amino)methylene)benzenesulfonamide], the IC50 is 338 nM.

With `Cc1ccc(-c2ncc(CN/C(N)=N/S(=O)(=O)c3ccccc3)cc2-c2ccc(Cl)cc2)c(F)c1` [Compound of Example 13, N-(amino(((5-(4-chlorophenyl)-6-(2-fluoro-4-methylphenyl)pyridin-3-yl)methyl)amino)methylene)benzenesulfonamide], the concentration for half-maximal inhibition (IC50) worked out at 237 nM.

`N/C(=N\S(=O)(=O)c1ccccc1)NCc1cnc(-c2ccc(Cl)cc2)c(-c2ccccc2)c1` [Compound of Example 14, N-(amino(((6-(4-chlorophenyl)-5-phenylpyridin-3-yl)methyl)amino)methylene)benzenesulfonamide]: the IC50 turned out to be 692 nM.

Take `N/C(=N\S(=O)(=O)c1ccccc1)NCc1cnc(-c2ccc(Cl)cc2)c(-c2cccc(Cl)c2)c1` [Compound of Example 15, N-(amino(((5-(3-chlorophenyl)-6-(4-chlorophenyl)pyridin-3-yl)methyl)amino)methylene)benzenesulfonamide]: the concentration for half-maximal inhibition (IC50) came to 308 nM.

For `N/C(=N\S(=O)(=O)c1ccccc1)NCc1cnc(-c2ccc(Cl)cc2)c(-c2ccccc2Cl)c1` [Compound of Example 16, N-(amino(((5-(2-chlorophenyl)-6-(4-chlorophenyl)pyridin-3-yl)methyl)amino)methylene)benzenesulfonamide], the IC50 amounted to 2410 nM.

In the case of `Cc1ccc(-c2cc(CN/C(N)=N/S(=O)(=O)c3ccccc3)cnc2-c2ccc(Cl)cc2)cc1` [Compound of Example 17, N-(amino(((6-(4-chlorophenyl)-5-(4-methylphenyl)pyridin-3-yl)methyl)amino)methylene)benzenesulfonamide], the IC50 stood at 606 nM.

As to `COc1ccc(-c2cc(CN/C(N)=N/S(=O)(=O)c3ccccc3)cnc2-c2ccc(Cl)cc2)cc1` [Compound of Example 18, N-(Amino(((6-(4-chlorophenyl)-5-(4-methoxyphenyl)pyridin-3-yl)methyl)amino)methylene)benzenesulfonamide], the IC50 turned out to be 24 nM.

With `N#Cc1ccc(-c2cc(CN/C(N)=N/S(=O)(=O)c3ccccc3)cnc2-c2ccc(Cl)cc2)cc1` [Compound of Example 19, N-(amino(((6-(4-chlorophenyl)-5-(4-cyanophenyl)pyridin-3-yl)methyl)amino)methylene)benzenesulfonamide], the IC50 came to 1520 nM.

Take `N/C(=N\S(=O)(=O)c1ccccc1)NCc1cnc(-c2ccc(Cl)cc2)c(-c2ccc(F)cc2)c1` [Compound of Example 20, N-(amino(((6-(4-chlorophenyl)-5-(4-fluorophenyl)pyridin-3-yl)methyl)amino)methylene)benzenesulfonamide]: the IC50 is 1110 nM.

As for `N/C(=N\S(=O)(=O)c1ccccc1)NCc1cnc(-c2ccc(Cl)cc2)c(-c2ccc(C(F)(F)F)cc2)c1` [Compound of Example 21, N-(Amino(((6-(4-chlorophenyl)-5-(4-(trifluoromethyl)phenyl)pyridin-3-yl)methyl)amino)methylene)benzenesulfonamide], the IC50 stood at 1040 nM.

In the case of `N/C(=N\S(=O)(=O)c1ccccc1)NCc1cnc(-c2ccc(Cl)cc2)c(-c2ccc(OC(F)(F)F)cc2)c1` [Compound of Example 22, N-(amino(((6-(4-chlorophenyl)-5-(4-(trifluoromethoxy)phenyl)pyridin-3-yl)methyl)amino)methylene)benzenesulfonamide], the IC50 was 745 nM.

As to `CC(C)Oc1ccc(-c2cc(CN/C(N)=N/S(=O)(=O)c3ccccc3)cnc2-c2ccc(Cl)cc2)cc1` [Compound of Example 23, N-(amino(((6-(4-chlorophenyl)-5-(4-isopropoxyphenyl)pyridin-3-yl)methyl)amino)methylene)benzenesulfonamide], the IC50 came out at 1720 nM.

For the molecule `COc1ccc(-c2cc(CN/C(N)=N/S(=O)(=O)c3ccccc3)cnc2-c2ccc(C)cc2)cc1` [Compound of Example 24, N-(amino(((5-(4-methoxyphenyl)-6-(4-methylphenyl)pyridin-3-yl)methyl)amino)methylene)benzenesulfoamide], the half-maximal inhibitory concentration (IC50) came out at 140 nM.

Take `Cc1ccc(-c2ncc(CN/C(N)=N/S(=O)(=O)c3ccccc3)cc2-c2ccc(C(F)(F)F)cc2)cc1` [Compound of Example 25, N-(amino(((6-(4-methylphenyl)-5-(4-(trifluoromethyl)phenyl)pyridin-3-yl)methyl)amino)methylene)benzenesulfonamide hydrochloride]: the half-inhibitory concentration (IC50) was 1840 nM.
